Assay [1] has as its target T1, Arginase-1 (Homo sapiens, UniProt P05089).
T1 sequence (P05089 whole entry): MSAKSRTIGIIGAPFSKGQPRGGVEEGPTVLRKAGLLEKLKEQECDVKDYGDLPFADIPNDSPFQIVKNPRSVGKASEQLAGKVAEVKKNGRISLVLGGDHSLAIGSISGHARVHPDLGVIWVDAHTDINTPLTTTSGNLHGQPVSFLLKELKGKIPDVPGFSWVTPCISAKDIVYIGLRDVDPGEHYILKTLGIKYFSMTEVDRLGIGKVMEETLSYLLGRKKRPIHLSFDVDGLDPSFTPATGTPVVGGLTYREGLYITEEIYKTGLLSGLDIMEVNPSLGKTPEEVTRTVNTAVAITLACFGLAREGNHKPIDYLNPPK
The experiment in a line: Binding affinity to human arginase 1 using L-arginine as substrate by surface plasmon resonance assay. In general terms: SPR reads the build-up and loss of mass on a sensor chip optically.

The target in assay [2] is T2, Arginase (Plasmodium falciparum, UniProt Q8I384).
T2 sequence (Q8I384 whole entry): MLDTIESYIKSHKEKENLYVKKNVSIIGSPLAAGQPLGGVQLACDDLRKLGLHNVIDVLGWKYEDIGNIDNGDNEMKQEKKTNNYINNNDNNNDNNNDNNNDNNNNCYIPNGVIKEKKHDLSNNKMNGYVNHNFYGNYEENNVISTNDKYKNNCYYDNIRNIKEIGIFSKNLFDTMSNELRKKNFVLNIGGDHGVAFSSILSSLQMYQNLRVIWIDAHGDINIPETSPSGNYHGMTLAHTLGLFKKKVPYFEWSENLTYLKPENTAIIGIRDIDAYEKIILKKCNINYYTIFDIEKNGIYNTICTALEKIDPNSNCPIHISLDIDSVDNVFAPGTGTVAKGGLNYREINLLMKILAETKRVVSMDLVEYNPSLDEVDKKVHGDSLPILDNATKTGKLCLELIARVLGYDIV
The experiment in a line: Inhibition of Plasmodium falciparum arginase using L-arginine as substrate by colorimetric assay.

Assay [3] deals with T1, Arginase-1. The experiment in a line: Binding affinity to human arginase 1.
Assay [4] has as its target T2, Arginase. The experiment in a line: Binding affinity to Plasmodium falciparum arginase.
Assay [5] concerns the target T3, Arginase-2, mitochondrial (Homo sapiens, UniProt P78540).
T3 sequence (P78540 whole entry): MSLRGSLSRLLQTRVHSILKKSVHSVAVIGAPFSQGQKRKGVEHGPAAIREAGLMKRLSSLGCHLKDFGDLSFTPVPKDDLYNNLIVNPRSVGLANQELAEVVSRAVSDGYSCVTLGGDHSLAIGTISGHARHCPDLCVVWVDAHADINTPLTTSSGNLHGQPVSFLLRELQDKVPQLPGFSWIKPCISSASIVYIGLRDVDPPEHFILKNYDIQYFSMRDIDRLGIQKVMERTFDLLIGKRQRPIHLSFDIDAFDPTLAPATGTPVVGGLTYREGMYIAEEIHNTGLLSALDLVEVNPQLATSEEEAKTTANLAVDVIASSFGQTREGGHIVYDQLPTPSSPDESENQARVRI
Description: Binding affinity to human arginase 2.

By Kd is commonly meant a measure of binding affinity in units of concentration. Read a high Kd as a looser complex. One may read the Ki as the equilibrium dissociation constant of an inhibitor or competing ligand from its target. Read a low Ki as higher affinity. As for `CC(N)(CCCCB(O)O)C(=O)O` (racemic), the Kd in assay [1] turned out to be 0.88 µM. In assay [2], the Ki stood at 260 µM.

As to `NC(CCCCB(O)O)(C(=O)O)C(F)F` (racemic), the dissociation constant (Kd) in assay [1] is 34 µM.

`N[C@@H](CCCCB(O)O)C(=O)O`: the Kd turned out to be 0.018 µM in assay [1], 0.005 µM in assay [3] and 11 µM in assay [4]. Further, the figures for the Ki in assay [5] and in assay [2] were 0.0085 µM and 10 µM, respectively.
